Laboratory results published in US9084423B2, “Inhibition of bacterial biofilms with imidazole derivatives” (North Carolina State University, priority 2007, dated 2015).

Experiments:
[1] = test system: P. aeruginosa strain PAO1; test: Static biofilm inhibition assay (crystal violet), PAO1; assay type: cell-based, Pseudomonas aeruginosa; conditions: for IC50: inhibition of biofilm formation, crystal violet, 24 hours
Procedure: Each compound was assayed for the ability to inhibit the formation of P. aeruginosa biofilms. […] We employed a standard crystal violet reporter assay to assess for the formation of biofilms. Briefly, P. aeruginosa strain PAO1 was allowed to form biofilms in a multi-well plate in the absence or presence of our compounds. Planktonic (or free growing) bacteria were then removed, wells washed vigorously, and crystal violet added. Crystal violet stains the remaining bacteria which, following ethanol solubilization, can be quantitated by spectrophotometry (A540).
(§1) An overnight culture of the bacterial strain being screened against was subcultured at an OD600 of 0.1 into the media used (listed below with strain) and then pipetted into test tubes along with a predetermined concentration of our compound of interest. Test tubes were then poured into tilted Petri dishes and 100 μL of media, strain and compound were then transferred into 96-well PVC microtiter plates. These microtiter plates were then covered, wrapped in Saran™ Wrap polyethylene film (S.C. Johnson, Racine, Wis.) and allowed to incubate at 37° C. for 24 hours. After that time, the medium was discarded and the plates were thoroughly washed with water. The remaining biofilm that was formed during incubation was stained with 100 μL of a 0.1% crystal violet solution and allowed to incubate at room temperature for 30 minutes. After 30 minutes, the crystal violet was discarded and washed thoroughly again with water. The remaining crystal violet that had stained the biofilm in the inside walls of the 96-well PVC plates was solubilized with 200 μL of 95% ethanol. The quantification of biofilm formation was accomplished by transferring 125 μL of the ethanol solution into a polystyrene microtiter dish, which was read by spectrophotometry (A540). After the background has been subtracted from each row, a percent inhibition can be calculated by dividing the amount of crystal violet in wells that contained compound by the amount of crystal violet in wells that contained bacteria only. Each concentration reported during the course of this study was repeated two to five times with each of those biofilm inhibition assays being done in 6 replicates each.
(§2) An overnight culture of the wild type strain was subcultured at an OD600 of 0.10 into LBNS along with a predetermined concentration of the small molecule to be tested for biofilm inhibition. Samples were then aliquoted (100 μL) into the wells of a 96-well PVC microtiter plate. The microtiter dishes were covered and sealed before incubation under stationary conditions at 37° C. for 24 hours. After that time, the medium was discarded and the plates thoroughly washed with water. The wells were then inoculated with a 0.1% aqueous solution of crystal violet (100 μL) and allowed to stand at ambient temperature for 30 minutes. Following another thorough washing with water the remaining stain was solubilized with 200 μL of 95% ethanol. Biofilm inhibition was quantitated by measuring the OD540 for each well by transferring 125 μL of the ethanol solution into a fresh polystyrene microtiter dish for analysis.
(§3) To examine each compound's ability to inhibit the formation of Pseudomonas aeruginosa biofilms, PAO1 and PA14 were employed as the target bacterial strains using a crystal violet reporter assay. G. A. O'Toole, R. Kolter, Mol. Microbiol. 1998, 28, 449. All compounds were initially screened at 500 μM for anti-biofilm activity.
An overnight culture of the wild type strain was subcultured at an OD600 of 0.10 into LBNS along with a predetermined concentration of the small molecule to be tested for biofilm inhibition. Samples were then aliquoted (100 μL) into the wells of a 96-well PVC microtiter plate. The microtiter dishes were covered and sealed before incubation under stationary conditions at 37° C. for 24 hours, After that time, the medium was discarded and the plates thoroughly washed with water. […]

P. aeruginosa PA14 = test: Static biofilm inhibition assay (crystal violet), PA14; assay type: cell-based, Pseudomonas aeruginosa; conditions: for IC50: PA14, inhibition of biofilm formation, crystal violet, 24 hours
Procedure: as §1, §2, §3
as §2, with “for 24 hours, After that” for “for 24 hours. After that”, “violet (100 pt) and allowed” for “violet (100 μL) and allowed”

[2] = test system: PDO300, mucoid strain of P. aeruginosa; test: Static biofilm inhibition assay (crystal violet), PDO300; assay type: cell-based; conditions: Pseudomonas aeruginosa, 24 h, read-out: IC50 against PDO300
Procedure: PDO300 was employed to assay if TAGE would inhibit the formation of mucoid biofilms. PDO300 is a well-characterized mucoid strain of P. aeruginosa that is genotypically identical to PAO1 except for the mucA mutation that converts the bacterium to the mucoid phenotype (Mathee et al., Microbiology, 1999, 145, 1349), PDO300 biofilms were allowed to develop in a 96-well plate in the absence or presence of TAGE. After 24 hours, the media and planktonic bacteria were removed, the wells were washed vigorously, and crystal violet was added. Crystal violet stains the bacterial biofilm that forms on the inside wall of the well at the air/liquid interface, which, following ethanol solubilization, can be quantitated by spectrophotometry (A540) (O'Toole et al., Mol. Microbiol., 1998, 30, 295).
An overnight culture of the bacterial strain being screened against was subcultured at an OD600 of 0.1 into the media used (listed below with strain) and then pipetted into test tubes along with a predetermined concentration of our compound of interest. Test tubes were then poured into tilted Petri dishes and 100 μL of media, strain and compound were then transferred into 96-well PVC microtiter plates. […] The quantification of biofilm formation was accomplished by transferring 125 μL of the ethanol solution into a polystyrene microtiter dish, which was read by spectrophotometry (A540). […]

[3] = test system: Acinetobacter Baumannii (ATCC 19606); test: Static biofilm inhibition assay (crystal violet), A. baumannii; assay type: cell-based; conditions: ATCC19606, inhibition of biofilm formation, 24 hours, read-out: IC50 value for inhibition against A. baumannii
Procedure: as §1, with “The remaining crystal violet that had stained the biofilm in the inside walls of the 96-well PVC plates was solubilized with 200 μL of 95% ethanol.” left out, “Each concentration reported during the course of this study was repeated two to five times with each of those biofilm inhibition assays being done in 6 replicates each.” left out

[4] = test system: B. bronchiseptica biofilms (strain Rb50); test: Static biofilm inhibition assay (crystal violet), RB50; assay type: cell-based; conditions: Bordetella bronchiseptica, inhibition of biofilm formation, 24 hours
Procedure: as §1, with “The remaining crystal violet that had stained the biofilm in the inside walls of the 96-well PVC plates was solubilized with 200 μL of 95% ethanol.” left out, “Each concentration reported during the course of this study was repeated two to five times with each of those biofilm inhibition assays being done in 6 replicates each.” left out

[5] = test system: planktonic P. aeruginosa PAO1; test: Planktonic growth (growth curves, colony counts), PAO1; assay type: cell-based, Pseudomonas aeruginosa; conditions: growth curves and/or colony counts, presence vs absence of compound, at IC50 or as stated
Excerpt: To answer the question of whether the compounds were antibiotics or true inhibitors of biofilm formation, we tested the ability of both compounds to inhibit growth of planktonic P. aeruginosa. Growth was quantitated by measuring optical density at 600 nm. […]

[6] = test system: planktonic P. aeruginosa PA14; test: Planktonic growth (growth curves, colony counts), PA14; assay type: cell-based, Pseudomonas aeruginosa; conditions: growth curves and/or colony counts, presence vs absence of compound, at IC50 or as stated
PDO300 = test: Planktonic growth (growth curves, colony counts), PDO300; assay type: cell-based, Pseudomonas aeruginosa; conditions: growth curves and/or colony counts
A. baumannii = test: Planktonic growth (growth curves, colony counts), A. baumannii; assay type: cell-based, Acinetobacter baumannii; conditions: growth curves and/or colony counts
Procedure: Screens of the three compounds were performed against A. baumannii and B. bronchiseptica.

A. baumannii biofilms = test: Biofilm dispersion, A. baumannii; assay type: cell-based, Acinetobacter baumannii; conditions: range of concentrations, FIG. 21
Procedure: Finally, each of the TAGE derivatives were assayed for their ability to disperse pre-formed biofilms. […] While not wishing to be bound by any particular theory, it is hypothesized that the failure of these derivatives to effectively disperse biofilms, in contrast to TAGE, might be due to impeded diffusion through the biofilm matrix.
(§4) From a clinical perspective, the ability to disperse an established biofilm can be an important consideration, because a physician is typically faced with treating an established or chronic biofilm infection. DHS was assessed for its ability to disperse existing biofilms of P. aeruginosa, A. baumannii, and B. bronchiseptica. Each bacterial strain was allowed to form biofilms for 24 hours in the absence of compound. At the end of 24 hours, the media and planktonic bacteria were removed and the remaining biofilm was treated either with media alone or media containing DHS.

[7] = test system: existing biofilms of B. bronchiseptica; test: Biofilm dispersion, B. bronchiseptica; assay type: cell-based, Bordetella bronchiseptica; conditions: range of concentrations, FIG. 21
Procedure: as §4

[8] = test system: existing biofilms of P. aeruginosa; test: Biofilm dispersion, P. aeruginosa (Example 6); assay type: cell-based, Pseudomonas aeruginosa; conditions: range of concentrations, FIG. 21
Procedure: as §4

pre-formed PAO1 biofilms = test: Static biofilm dispersion assay, PAO1; assay type: cell-based; conditions: Pseudomonas aeruginosa, 24-hour pre-formed biofilm, 24 hours treatment
Procedure: (§5) One aspect associated with small molecule modulation of biofilm development is the ability to disperse a pre-formed biofilm. There have only been a limited number of examples in the literature of molecules that disperse bacterial biofilms. Banin et al., Appl. Environ. Microbiol., 2006, 72, 2064. L. M. Junker and J. Clardy, Antimicrob, Agents Ch., 2007, 51, 3582. Boles et al., Mol. Microbiol., 2005, 57, 1210. TAGE was assayed for its ability to disperse pre-formed PAO1 and PA14 biofilms. Each bacterial strain was allowed to form biofilms in a microtiter well for 24 hours in the absence of compound. […] After 24 hours, all the wells were washed vigorously to remove media and planktonic bacteria, and then were stained with crystal violet to quantify the amount of remaining biofilm Representative PAO1 results are depicted in FIG. 6.
(§6) An overnight culture of either PAO1 or PA14 was subcultured at an OD600 of 0.5 into LBNS and aliquoted (100 μL) into the wells of a 96-well PVC microtiter plate. […] The quantification of remaining biofilm was accomplished by transferring 125 μL of the ethanol solution into a polystyrene microtiter dish, which was read by spectrophotometry (A540). Percent dispersion was calculated in the same manner as percent biofilm inhibition described previously in this experimental section. […]

pre-formed PA14 biofilms = test: Static biofilm dispersion assay, PA14; assay type: cell-based; conditions: Pseudomonas aeruginosa, 24-hour pre-formed biofilm, 24 hours treatment
Procedure: as §5, §6

[9] = listed as DHS 23, hydrochloride
[10] = listed as DHS (7), hydrochloride

Cl.Cn1c(C(=O)NCCCc2c[nH]c(N)n2)cc(Br)c1Br [Compound 23, 4,5-dibromo-1-methyl-pyrrole-2-carboxylic acid [3-(2-amino-1H-imidazol-4-yl)-propyl]-amide hydrochloride]
% Biofilm Inhibition at 500 μM vs PAO1 ([1]; 500 μM, hydrochloride): >95% | inhibition at 500 µM ([1]; Pseudomonas aeruginosa, PAO1): > 95% | IC50 ([1]; Pseudomonas aeruginosa, PAO1): 51 ± 9 µM | fold more active than both TAGE and CAGE ([1]; from IC50 values against PAO1 and PA14): approximately 2 fold | % Biofilm Inhibition at 500 μM vs PA14 (P. aeruginosa PA14; 500 μM, hydrochloride): >95% | inhibition at 500 µM (P. aeruginosa PA14; Pseudomonas aeruginosa, PA14, 24 h): > 95% | IC50 (P. aeruginosa PA14; Pseudomonas aeruginosa): 111 ± 8 µM | IC50 [2]: 115 µM | IC50 [3]: 110 µM | IC50 [4]: 238 µM | microbicidal effect on PAO1 planktonic growth (in words) [5, 9]: no reduction | microbicidal effect on PAO1 planktonic growth (in words) [5, 10]: not due to a bactericidal effect | microbicidal effect on PA14 planktonic growth (in words) [6, 9]: no reduction | microbicidal effect on PA14 planktonic growth (in words) [6, 10]: not due to a bactericidal effect | bactericidal activity against PDO300 (in words) (PDO300): lacked significant bactericidal activity | microbicidal effect on A. baumannii planktonic growth (in words) (A. baumannii): no microbicidal effects | dispersion of existing A. baumannii biofilms (in words) (A. baumannii biofilms): able to successfully disperse | dispersion of existing B. bronchiseptica biofilms (in words) [7]: able to successfully disperse | dispersion of existing P. aeruginosa biofilms (in words) [8]: able to successfully disperse

CCCCCCCCCCCCNC(=O)CCCc1c[nH]c(N)n1.Cl [Compound 12, 4-(2-amino-1H-imidazol-4-yl)-N-dodecyl-butyramide hydrochloride]
IC50 ([1]; Pseudomonas aeruginosa, PAO1): 2.84 µM | IC50 (P. aeruginosa PA14; Pseudomonas aeruginosa): 2.26 µM | microbicidal effect on PAO1 planktonic growth (in words) [5]: remained unchanged | microbicidal effect on PA14 planktonic growth (in words) [6]: remained unchanged | EC50 (pre-formed PAO1 biofilms): 32.8 ± 4.7 µM | EC50 (pre-formed PA14 biofilms): 21.3 ± 3.9 µM
